Measured values as given in article PMC11432405, “Development of Novel Alaninamide Derivatives with Anticonvulsant Activity and Favorable Safety Profiles in Animal Models” (International Journal of Molecular Sciences, 2024).
Read-outs that look alike come from different tables or passages of the source.

Columns and labels:
6 Hz (32 mA) seizures [1] = assay: 6 Hz (32 mA) psychomotor seizure model; settings: for PI (TD50/ED50) 6 Hz: TD50 rotarod / ED50 6 Hz (32 mA); for protection (efficacy) in the 6 Hz (32 mA) screening / ED50 6 Hz (32 mA) / 6 Hz (32 mA) test: number of mice protected / number of mice tested: mice i.p.; for protection (efficacy) in the 6 Hz (32 mA) screening: 100 mg/kg, four mice; for protection (efficacy) in the 6 Hz (32 mA) screening / ED50 / responders at 100 mg/kg: 0.5 h; for ED50 6 Hz (32 mA): TPE 0.5 h, 95% confidence interval in parentheses; for 6 Hz (32 mA) test: number of mice protected / number of mice tested: dose of 100 mg/kg, pretreatment time 0.5 h; for ED50 / responders at 100 mg/kg: Mus musculus, ip; for ED50: read-out: ED50 6 Hz (32 mA), mice i.p., TPE 0.5 h, 95% confidence interval in parentheses; for responders at 100 mg/kg: read-out: protection (efficacy) in the 6 Hz (32 mA) screening;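 for all read-outs here: adult male albino Swiss CD-1 mice, each used once, with compounds suspended in 1% Tween 80 in water as vehicle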
motor coordination [2] = assay: rotarod test (acute neurological toxicity, motor coordination); format: in vivo; settings: mice i.p., 0.5 h
Protocol: (§1) The protective indexes (PIs) were then calculated as the ratio of TD50 to ED50 (PI = TD50/ED50), providing an assessment of the therapeutic window for each compound.

human recombinant MAO-B = biological target: T1, human recombinant MAO-B (Homo sapiens, UniProt P27338); assay: fluorometric monoamine oxidase B inhibition assay; format: biochemical; settings: for % inhibition MAO-B (1 µM): mean of two independent experiments; for inhibition at 1 µM: read-out: % inhibition MAO-B (1 µM), mean of two independent experiments
T1 construct: purchased Sigma Aldrich
T1 sequence (P27338 1-520): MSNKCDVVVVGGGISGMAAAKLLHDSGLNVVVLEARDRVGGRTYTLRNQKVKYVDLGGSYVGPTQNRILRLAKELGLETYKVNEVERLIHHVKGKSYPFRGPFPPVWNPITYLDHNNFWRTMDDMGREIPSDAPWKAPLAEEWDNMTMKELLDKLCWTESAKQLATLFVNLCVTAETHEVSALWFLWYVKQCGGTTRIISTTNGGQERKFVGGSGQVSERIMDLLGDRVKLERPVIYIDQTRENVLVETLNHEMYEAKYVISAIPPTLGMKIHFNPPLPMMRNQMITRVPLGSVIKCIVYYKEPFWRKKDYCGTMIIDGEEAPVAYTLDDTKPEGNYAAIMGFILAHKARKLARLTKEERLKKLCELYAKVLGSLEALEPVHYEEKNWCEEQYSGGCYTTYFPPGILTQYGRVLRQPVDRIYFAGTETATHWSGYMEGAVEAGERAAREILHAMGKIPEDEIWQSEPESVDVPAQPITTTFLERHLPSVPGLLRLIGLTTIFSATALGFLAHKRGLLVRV

[3] = tested on: maximal electroshock (MES) seizures; assay: maximal electroshock seizure (MES) test; format: in vivo, mice; settings: for PI (TD50/ED50) MES: TD50 rotarod / ED50 MES; for protection (efficacy) in the MES screening / ED50 MES / MES test: number of mice protected / number of mice tested / ED50 / responders at 100 mg/kg: mice i.p.; for protection (efficacy) in the MES screening: 100 mg/kg, 0.5 h, four mice; for ED50 MES / ED50: TPE 0.5 h, 95% confidence interval in parentheses; for MES test: number of mice protected / number of mice tested / responders at 100 mg/kg: dose of 100 mg/kg, pretreatment time 0.5 h; for ED50 / responders at 100 mg/kg: Mus musculus, ip; for responders at 100 mg/kg: read-out: MES test: number of mice protected / number of mice tested (converted)
Source text: Epilepsy is a multifaceted disorder with often unclear etiology, making it challenging to pinpoint a specific receptor or transporter as the definitive target. Consequently, the discovery of ASMs deviates from the traditional drug development pathway, which typically involves designing a new molecule, docking it with a specific biological target, and performing chemical synthesis, followed by in vitro assays. Instead, numerous animal seizure models, which mirror various types of human epileptic seizures, are initially employed in the process of new ASM discovery. This approach has been instrumental in the identification and introduction into clinical practice of all currently used ASMs and continues to be a cornerstone in the preclinical development of new anticonvulsants. The primary justification for prioritizing in vivo screening over in vitro binding and functional studies is the complex and often not fully elucidated mechanisms of action of known ASMs. This approach also facilitates the discovery of compounds with novel, previously undefined pharmacodynamic properties. In light of this, we evaluated all compounds obtained in the current studies using the MES test, which remains one of the most valuable preclinical screening models for tonic-clonic seizures, as well as partial convulsions with or without secondary generalization in humans. This test allows for a comprehensive assessment of the anticonvulsant efficacy of new ASM candidates and is considered highly relevant for predicting their therapeutic efficacy in human epilepsy. The MES test was carried out in mice following the intraperitoneal (i.p.) administration of a screening dose of 100 mg/kg in a group consisting of four animals. The efficacy of the compounds synthesized was evaluated at 0.5 h pretreatment time.
Fresh solutions were prepared daily for each experimentation session.
Each group consisted of six animals.

6 Hz (32 mA) seizures [4] = settings: cited from earlier work; for PI (TD50/ED50) 6 Hz: TD50 rotarod / ED50 6 Hz (32 mA)
[5] = tested on: maximal electroshock (MES) seizures; settings: cited from earlier work; for PI (TD50/ED50) MES: TD50 rotarod / ED50 MES
6 Hz (44 mA) seizures = settings: cited from earlier work; for PI (TD50/ED50) 6 Hz (44 mA): TD50 rotarod / ED50 6 Hz (44 mA)
motor coordination [6] = settings: cited from earlier work
[7] = rotarod test (acute neurological toxicity, motor coordination); format: in vivo; settings: male, CD-1 (albino Swiss), mouse, in vivo, ip, mice i.p.
Protocol: as §1

HepG2 cells = assay: hepatocytotoxicity MTT viability assay; format: cell-based, human; settings: 50 µM, 24 h; cell line not specified in the sentence (Figures 2 and 3)
Protocol: To evaluate selected compounds’ hepatocytotoxicity and neurocytotoxicity, a human hepatocellular carcinoma cell line, HepG2 (ATCC® HB-8065™), and a human neuroblastoma cell line, SH-SY5Y (ATCC®, CRL-2266™), were used. Both cell lines were cultured in standard culture conditions (5% CO2, 37 °C, 95% humidity) using Dulbecco′s Modified Eagle′s—Medium (DMEM; Gibco, Thermo Scientific, Waltham, MA, USA) supplemented with 10% (vol/vol) fetal bovine serum (FBS; Gibco, Thermo Scientific, Waltham, MA, USA) and an antibiotic mixture (Penicillin, Streptomycin, Amphotericin B; Gibco, Thermo Scientific, Waltham, MA, USA). Cells were cultured with compounds 5, […], or 39 (1–50 µM) for 24 h and then an MTT (3-(4,5-dimethylthiazol-2-yl)-2,5diphenyltetrazolium bromide, Sigma-Aldrich, St. Louis, MO, USA) viability assay was performed. The formazan crystals were dissolved in DMSO (Sigma-Aldrich, St. Louis, MO, USA), and the absorbance at 570 nm was measured using a microplate reader (SpectraMax® iD3, Molecular Devices, San Jose, CA, USA). The experiment was performed three times in duplicate. Each bar represents the mean (±SEM) percentage of viable cells in comparison to the control (defined as 100% and represented by untreated cells).
Figure 2 The viability of HepG2 cells incubated in the presence of 5, 17, and 39. HepG2 cells were exposed to growing concentrations (1–50 µM) of tested compounds for 24 h. Cell viability was measured using an MTT assay. Bars represent mean percent of cell viability normalized to non-treated cells (100%) ± SEM. The doxorubicin was tested as a positive control.

[8] = mice i.p., TPE 0.5 h (LEV 1.0 h)

SMILES	PI (TD50/ED50) 6 Hz (6 Hz (32 mA) seizures [1])	protection (efficacy) in the 6 Hz (32 mA) screening (6 Hz (32 mA) seizures [1]) [%]	ED50 6 Hz (32 mA) (6 Hz (32 mA) seizures [1])	6 Hz (32 mA) test: number of mice protected / number of mice tested (6 Hz (32 mA) seizures [1])	TD50 (rotarod test) (motor coordination [2]) [mg/kg]	% inhibition MAO-B (1 µM) (human recombinant MAO-B) [%]	PI (TD50/ED50) MES [3]	protection (efficacy) in the MES screening [3] [%]	MES test: number of mice protected / number of mice tested [3]	PI (TD50/ED50) 6 Hz (6 Hz (32 mA) seizures [4])	PI (TD50/ED50) MES [5]	PI (TD50/ED50) 6 Hz (44 mA) (6 Hz (44 mA) seizures)	further results
CC(C(=O)NCc1ccc(OCc2cccc(F)c2)cc1)N1C(=O)CCC1=O (stereo not drawn) [Compound 7, 2-(2,5-dioxopyrrolidin-1-yl)-N-(4-((3-fluorobenzyl)oxy)benzyl)propanamide]	> 4.2	100	71.73 (66.6–77.23) mg/kg	4/4	>300	0	> 3.8	≤ 25	1/4				ED50 MES [3]: 78.30 (65.82–93.13) mg/kg
COC[C@@H](NC(C)=O)C(=O)NCc1ccccc1 [LCS, lacosamide]										8.8	5.0	6.7	ED50 6 Hz (32 mA) (6 Hz (32 mA) seizures [4]; mouse, in vivo, ip): 5.3 (3.5–7.8) mg/kg; ED50 MES ([5]; mice i.p., TPE 0.5 h (LEV 1.0 h), same conditions): 9.2 (8.5–10.0) mg/kg; ED50 6 Hz (44 mA) (6 Hz (44 mA) seizures; [8]): 6.9 (5.4–8.6) mg/kg
C[C@H](C(=O)NCc1ccccc1)N1C(=O)CCC1=O [(R)-AS-1, (R)-N-Benzyl-2-(2,5-Dioxopyrrolidin-1-Yl)Propanamide]										> 32.0	> 7.5	>12.0	TD50 (rotarod test) (motor coordination [6]; mouse, in vivo, ip): >500 mg/kg
CC(C(=O)NCc1ccc(OCc2ccccc2Cl)cc1)N1C(=O)CCC1=O (stereo not drawn) [Compound 9, N-(4-((2-chlorobenzyl)oxy)benzyl)-2-(2,5-dioxopyrrolidin-1-yl)propanamide]	> 5.2	75	57.69 (33.98–97.94) mg/kg	3/4	>300	0	> 6.3	100	4/4				
CC[C@@H](C(N)=O)N1CCCC1=O [LEV, levetiracetam]													TD50 (rotarod test) (motor coordination [6]; mice i.p., Table 2): >500 mg/kg; TD50 (rotarod test) (motor coordination [6]; mice i.p., Table 3): >500 mg/kg
CCCC(CCC)C(=O)O [VPA, valproic acid]										3.3	1.7	2.3	ED50 6 Hz (32 mA) (6 Hz (32 mA) seizures [4]; [8]): 130.6 (117.6–145.2) mg/kg
CC(C(=O)NCc1ccc(OCc2cccc(C(F)(F)F)c2)cc1)N1CCCC1=O (stereo not drawn) [Compound 38, 2-(2-oxopyrrolidin-1-yl)-N-(4-((3-(trifluoromethyl)benzyl)oxy)benzyl)propanamide]													ED50 (6 Hz (32 mA) seizures [1]): 65.3 mg/kg; responders at 100 mg/kg (6 Hz (32 mA) seizures [1]): 75%; melting point: 123.5 to 123.8 °C; TD50 at 0.5 h [7]: > 300 mg/kg; inhibition at 1 µM (human recombinant MAO-B): 2%; ED50 [3]: 54.8 mg/kg; responders at 100 mg/kg [3]: 100%
CC(C(=O)NCc1ccc(OCc2ccc(OC(F)(F)F)cc2)cc1)N1CCCC1=O (stereo not drawn) [Compound 39, 2-(2-oxopyrrolidin-1-yl)-N-(4-((4-(trifluoromethoxy)benzyl)oxy)benzyl)propanamide]	< 8.0						< 8.3						ED50 (6 Hz (32 mA) seizures [1]): 37.3 mg/kg; responders at 100 mg/kg (6 Hz (32 mA) seizures [1]): 100%; melting point: 103.4 to 103.9 °C; TD50 at 0.5 h [7]: < 300 mg/kg; cell viability at higher concentration (MTT) (HepG2 cells): statistically significant decrease in cell viability; inhibition at 1 µM (human recombinant MAO-B): 0%; ED50 [3]: 36.2 mg/kg; responders at 100 mg/kg [3]: 100%
CC(C(=O)NCc1ccc(OCc2cccc(Cl)c2)cc1)N1C(=O)CCC1=O (stereo not drawn) [Compound 10, N-(4-((3-chlorobenzyl)oxy)benzyl)-2-(2,5-dioxopyrrolidin-1-yl)propanamide]	> 5.0	75	59.31 (45.54–73.08) mg/kg	3/4	>300	0	> 5.9	100	4/4				ED50 MES [3]: 50.87 (45.29–57.13) mg/kg
C[C@H](NCc1ccc(OCc2cccc(F)c2)cc1)C(N)=O [SAF, safinamide]													ED50 in the MES model ([5]; mice): 4.1 mg/kg
